Reference: patent US8834841B2, “Imaging agents” (priority 2005, dated 2014)

Assays:
DU145 prostate carcinoma = experiment: in vitro amino acid uptake, DU145 cells; assay type: cell-based, human
Excerpt: The inventive compounds have been evaluated in vitro for tumor binding specificity (i.e. uptake cells) using a variety of tumor cell lines available in the art, along with reference compounds such as Me-AIB and BCH. Detailed description of these assays can be found in Martarello et al. (2002) Journal of Medicinal Chemistry, 45:2250-2259 and McConathy et al. (2003) Nuclear Medicine and Biology, 30:477-490. These, so called “amino acid uptake studies” are typically carried out with radiolabeled compounds in at least five phenotypically different human tumor cell lines (e.g. A549 lung carcinoma, MB468 breast carcinoma, DU145 prostate carcinoma, SKOV3 ovarian carcinoma, and U87 glial blastoma). These tumor cell lines can be grown either in vitro or in vivo with severe combined immunodeficiency (SCID) mice as a host. The fore-mentioned tumor cell lines are available at the Winship Cancer Institute of Emory University.
For the in vitro amino acid uptake studies, all cells can be grown to monolayer confluency in T-175 culture flasks [Corning, Corning, N.Y.] (approx. 1×10^8 cells/flask) in Dulbecco's Modified Eagle's Medium (DMEM) [Sigma, St. Louis, Mo.] in a humidified incubator (37° C., 5% CO2/95% air). Media are supplemented with 10% fetal calf serum [Hyclone, Logan, Utah], and antibiotics (10,000 U/ml penicillin and 10 mg/ml streptomycin) (Sigma, St. Louis, Mo.). For tissue culture passage, monolayer cells are detached by gentle trypsinization, resuspended in complete media, and split 1:10 into new T-flasks. […]
In the in vitro studies the uptake rate of each amino acid compound is measured in each tumor line, as well as the dominant transport mechanisms of each tumor cell line. After trypsinization, cells are resuspended in serum-free media, then counted on a hemocytometer, with viability assessed through Trypan blue staining. […] The vials are placed in a Cobra-II gamma counter (Packard, Meriden, Conn.), with the activity per cell number determined. […] Saline washes are performed as described above, and the filtered cells radioactivity determined on the gamma counter. […]

[1] = test system: DU145 Prostate Tumor Cells Implanted SC in SCID Mice; experiment: tissue distribution, DU145 tumor-bearing SCID mice; assay type: in vivo
Procedure: For the in vitro amino acid uptake studies, all cells can be grown to monolayer confluency in T-175 culture flasks [Corning, Corning, N.Y.] (approx. 1×10^8 cells/flask) in Dulbecco's Modified Eagle's Medium (DMEM) [Sigma, St. Louis, Mo.] in a humidified incubator (37° C., 5% CO2/95% air). Media are supplemented with 10% fetal calf serum [Hyclone, Logan, Utah], and antibiotics (10,000 U/ml penicillin and 10 mg/ml streptomycin) (Sigma, St. Louis, Mo.). For tissue culture passage, monolayer cells are detached by gentle trypsinization, resuspended in complete media, and split 1:10 into new T-flasks. Cultures are passaged weekly, and fed fresh media every 2 to 3 days. To initiate tumor growth in SCID mice, 1×10^6 cells are injected s.c. bilaterally into the flanks (inguinal region) of the recipient animals using a 1 ml syringe with a 27 gauge needle. Ex vivo experiments can be performed with animals containing tumors weighing between 500 mg and 1 g, as estimated by caliper measurement (tumor weight=(π/6)*abc, where a, b and c are the tumor length, width and height, respectively). The compounds of the invention are further evaluated for their tumor specificity and selectivity in tumor-bearing animal models. One can evaluate and compare the transport, accumulation and tissue distribution of each compound in these in vivo animal studies. Tissue distribution of the compounds is measured in SCID mice (average weight, 20-25 g) bearing human tumors as follows. The candidate radioligands (20 uCi in 0.4 ml 0.9% NaCl) are injected into the tail vein of tumor-bearing mice. […] Tissues (blood, heart, liver, lungs, kidneys, bone, thyroid, muscle, brain and tumor) are excised, rinsed in saline, and blotted dry. The tissues are weighed, placed into 12×75 mm glass vials, the radioactivity determined with a gamma counter, and the percent dose/gram calculated. Total activities of blood and muscle are calculated by assuming that they account for 7% and 40% of the total body mass, respectively.

% Dose/g blood ([1]; 15 Minutes): 2.79 % Dose/g
% Dose/g bone ([1]; 15 Minutes): 1.05 % Dose/g
% Dose/g brain ([1]; 15 Minutes): 0.16 % Dose/g
% Dose/g heart ([1]; 15 Minutes): 2.07 % Dose/g
% Dose/g kidney ([1]; 15 Minutes): 6.81 % Dose/g
% Dose/g liver ([1]; 15 Minutes): 2.32 % Dose/g
% Dose/g lung ([1]; 15 Minutes): 3.35 % Dose/g
% Dose/g muscle ([1]; 15 Minutes): 0.83 % Dose/g
% Dose/g pancreas ([1]; 15 Minutes): 29.02 % Dose/g
% Dose/g spleen ([1]; 15 Minutes): 4.37 % Dose/g
% Dose/g tumor ([1]; 15 Minutes): 2.94 % Dose/g
% Dose/g blood ([1]; 30 Minutes): 1.85 % Dose/g
% Dose/g bone ([1]; 30 Minutes): 1.62 % Dose/g
% Dose/g brain ([1]; 30 Minutes): 0.16 % Dose/g
% Dose/g heart ([1]; 30 Minutes): 1.82 % Dose/g
% Dose/g kidney ([1]; 30 Minutes): 4.47 % Dose/g
% Dose/g liver ([1]; 30 Minutes): 2.08 % Dose/g
% Dose/g lung ([1]; 30 Minutes): 2.31 % Dose/g
% Dose/g muscle ([1]; 30 Minutes): 0.99 % Dose/g
% Dose/g pancreas ([1]; 30 Minutes): 29.29 % Dose/g
% Dose/g spleen ([1]; 30 Minutes): 4.74 % Dose/g
% Dose/g tumor ([1]; 30 Minutes): 3.54 % Dose/g
% Dose/g blood ([1]; 60 Minutes): 0.80 % Dose/g
% Dose/g bone ([1]; 60 Minutes): 2.22 % Dose/g
% Dose/g brain ([1]; 60 Minutes): 0.17 % Dose/g
% Dose/g heart ([1]; 60 Minutes): 1.32 % Dose/g
% Dose/g kidney ([1]; 60 Minutes): 1.82 % Dose/g
% Dose/g liver ([1]; 60 Minutes): 1.22 % Dose/g
% Dose/g lung ([1]; 60 Minutes): 1.18 % Dose/g
% Dose/g muscle ([1]; 60 Minutes): 1.15 % Dose/g
% Dose/g pancreas ([1]; 60 Minutes): 15.00 % Dose/g
% Dose/g spleen ([1]; 60 Minutes): 2.84 % Dose/g
% Dose/g tumor ([1]; 60 Minutes): 2.56 % Dose/g
% Dose/g blood ([1]; 120 Minutes): 0.38 % Dose/g
% Dose/g bone ([1]; 120 Minutes): 0.65 % Dose/g
% Dose/g brain ([1]; 120 Minutes): 0.12 % Dose/g
% Dose/g heart ([1]; 120 Minutes): 0.82 % Dose/g
% Dose/g kidney ([1]; 120 Minutes): 0.78 % Dose/g
% Dose/g liver ([1]; 120 Minutes): 0.42 % Dose/g
% Dose/g lung ([1]; 120 Minutes): 0.45 % Dose/g
% Dose/g muscle ([1]; 120 Minutes): 0.71 % Dose/g
% Dose/g pancreas ([1]; 120 Minutes): 5.92 % Dose/g
% Dose/g spleen ([1]; 120 Minutes): 0.87 % Dose/g
% Dose/g tumor ([1]; 120 Minutes): 1.84 % Dose/g
Compound: NC1(C(=O)O)CCC1[18F] [Anti-R,S 2-[^18F]FACBC, (R,S) anti-1-amino-2-[^18F]fluorocyclobutyl-1-carboxylic acid]
% Dose Uptake/0.5e6 Cells (DU145 prostate carcinoma; DU145, No inhibitor): 6.40 +/− 0.60 % Dose Uptake/0.5e6 Cells
% Dose Uptake/0.5e6 Cells (DU145 prostate carcinoma; DU145, inhibitor BCH (10 mM)): 1.78 +/− 0.20 % Dose Uptake/0.5e6 Cells
% Dose Uptake/0.5e6 Cells (DU145 prostate carcinoma; DU145, inhibitor MeAlB (10 mM)): 2.07 +/− 0.26 % Dose Uptake/0.5e6 Cells
